Values joined by “and” are separate entries in the source; they are usually repeats but may differ in a detail not shown here. Identical values can stand only once. Like-named read-outs stand apart in the source and are kept apart here.
What was measured:
nAChRs = test: Two-electrode voltage clamp of Xenopus oocytes expressing nAChRs, statements across tested subtypes; assay type: cell-based
Procedure: (§1) cDNA clones of rat neuronal nAChR subunits (α3, α4, β2 and β4) and mouse muscle subunits (α1, β1, γ and δ) were from the Salk Institute for Biological Studies (Professor Stephen Heinemann). The human α7 and RIC-3 cDNAs were provided by Professor David Sattelle (University College London).
(§2) Oocytes isolated from mature female Xenopus laevis were supplied by the European Xenopus Resource Centre, University of Portsmouth, UK. Oocytes were treated with collagenase (0.5 mg/ml, Sigma type 1 A) in Ca^2+-free solution (96 mM NaCl, 2 mM KCl, 1 mM MgCl2, 5 mM HEPES, 2.5 mM Na-pyruvate, 100 U/mL penicillin, 0.1 mg/mL streptomycin, pH 7.5) with shaking at 19 °C to defolliculate and remove the connective tissue surrounding the cells. After separation, oocytes were washed 7 times with modified Barth’s solution (96 mM NaCl, 2 mM KCl, 1.8 mM CaCl2, 1 mM MgCl2, 5 mM HEPES, 2.5 mM Na-pyruvate, 0.5 mM theophylline, 50 μg/mL gentamicin, pH 7.5) and kept at 19 °C in the same solution.
(§3) Healthy oocytes were injected with cRNA using a Nano-liter Injector (World Precision Instruments Inc, USA). Mixtures of nAChR subunit cRNAs were injected as follows; for heteromeric rat neuronal receptors a 1:1 ratio of α:β at 200 ng/μL; for mouse embryonic muscle a 1:1:1:1 ratio of α:β:γ:δ at 25 ng/μL; human α7 at 100 ng/μL was mixed with RIC-3 at 30 ng/μL. Each oocyte was injected with 50 nL of RNA solution. Injected oocytes were saved in Barth’s solution at 19 °C for two to three days for expression of the target protein. During this time oocytes were regularly checked to remove unhealthy ones.
(§4) Electrophysiological recordings were taken from nAChR-expressing oocytes by two-electrode voltage clamp using a Geneclamp 500 voltage clamp amplifier (Axon instruments, USA). An oocyte was placed in the perfusion chamber using a plastic Pasteur pipette and the bath was perfused (~5 mL/min) with fresh Frog Ringer solution (96 mM NaCl, 2 mM KCl, 1.8 mM CaCl2 and 5 mM HEPES, pH 7.5). Microelectrodes were pulled from borosilicate glass capillaries (Harvard GC150TF-10) using a programmable micropipette puller (Sutter P97, USA), and they had resistances between 0.5 and 2.5 MΩ when filled with 3 M KCl. The oocyte was voltage-clamped at holding potentials (VH) between −60 and −100 mV. […] Currents were recorded to a PC via a digidata 1200 analog-to-digital converter (Axon Instuments, USA) using WinEDR v3.2.6 Software (Dr John Dempster, University of Strathclyde, UK).
(§5) Graphpad Prism 6 was used for data analysis, graph plotting and curve fitting. All plotted points are the mean ± SEM obtained from 4–20 oocytes.

α4β2(V253F) nAChR = biological target: T1, α4β2(V253F) nAChR (Rattus norvegicus, UniProt P09483+P12390, V277F); test: Two-electrode voltage clamp of ACh currents, α4β2(V253F) nAChRs expressed in Xenopus oocytes; assay type: cell-based; conditions: for IC50: α4β2(V253F), ACh 10 μM
T1 construct: expressed in transfected cells; host or cells: Xenopus laevis oocytes injected with cRNA
Procedure: as §1, §2, §3, §4, §5

[1] = system: nAChRs expressed by PC12 cells; conditions: patch-clamp study of PC12 cells ref 14; cited from earlier work
α4β2 nAChR = biological target: T2, α4β2 nAChR (Rattus norvegicus, UniProt P09483+P12390); test: cell-based; assay type: cell-based; conditions: for IC50: IC50 (95% CI), ACh 10 μM
T2 construct: expressed in transfected cells; host or cells: Xenopus laevis oocytes injected with cRNA
Procedure: as §1, §2, §3, §4, §5

α3β4 nAChR = biological target: T3, α3β4 nAChR (Rattus norvegicus, UniProt P04757+P12392); test: cell-based; conditions: for IC50: IC50 (95% CI)
T3 construct: expressed in transfected cells; host or cells: Xenopus laevis oocytes injected with cRNA
Procedure: as §2, §3, §4, §5

α1β1γδ nAChR = biological target: T4, α1β1γδ nAChR (Mus musculus, UniProt P02716+P04756+P04760+P09690); test: cell-based; assay type: cell-based; conditions: for IC50: IC50 (95% CI), ACh 10 μM
T4 construct: expressed in transfected cells; host or cells: Xenopus laevis oocytes injected with cRNA
Procedure: as §2, §3, §4, §5

α3β2 nAChR = α3β2 nAChR (Rattus norvegicus, UniProt P04757+P12390); test: Two-electrode voltage clamp of ACh currents, α3β2 nAChRs expressed in Xenopus oocytes; conditions: for IC50: IC50 (95% CI), ACh 30 μM
Procedure: as §2, §3, §4, §5

α3β4(F255V) nAChR = biological target: T5, α3β4(F255V) nAChR (Rattus norvegicus, UniProt P04757+P12392, F275V); test: Two-electrode voltage clamp of ACh currents, α3β4(F255V) nAChRs expressed in Xenopus oocytes; assay type: cell-based; conditions: for IC50: α3β4(F255V), ACh 100 μM
T5 construct: expressed in transfected cells; host or cells: Xenopus laevis oocytes injected with cRNA
Procedure: as §1, §2, §3, §4, §5

α4β4 nAChR = biological target: T6, α4β4 nAChR (Rattus norvegicus, UniProt P09483+P12392); test: cell-based; assay type: cell-based; conditions: for IC50: IC50 (95% CI), ACh 10 μM
T6 construct: expressed in transfected cells; host or cells: Xenopus laevis oocytes injected with cRNA
Procedure: as §2, §3, §4, §5

α7 nAChR = biological target: T7, α7 nAChR (Homo sapiens, UniProt P36544); test: Two-electrode voltage clamp of ACh currents, α7 nAChRs (with RIC-3) expressed in Xenopus oocytes; assay type: cell-based; conditions: for IC50: IC50 (95% CI), ACh 100 μM
T7 construct: expressed in transfected cells; host or cells: Xenopus laevis oocytes injected with cRNA
Procedure: as §2, §3, §4, §5

[2] = VH −60 mV, late current (1 min), read-out: IC50 (95% CI), Late
[3] = VH −60 mV, peak current, read-out: IC50 (95% CI), Peak
[4] = VH −80 mV, late current (1 min), read-out: IC50 (95% CI), Late
[5] = VH −80 mV, peak current, read-out: IC50 (95% CI), Peak
[6] = VH −100 mV, late current (1 min), read-out: IC50 (95% CI), Late
[7] = VH −100 mV, peak current, read-out: IC50 (95% CI), Peak
[8] = α3β4, after co-application of 10 μM toxin, ACh 100 μM, −80 mV

α3β2 nAChR, sequence (P04757 26-499): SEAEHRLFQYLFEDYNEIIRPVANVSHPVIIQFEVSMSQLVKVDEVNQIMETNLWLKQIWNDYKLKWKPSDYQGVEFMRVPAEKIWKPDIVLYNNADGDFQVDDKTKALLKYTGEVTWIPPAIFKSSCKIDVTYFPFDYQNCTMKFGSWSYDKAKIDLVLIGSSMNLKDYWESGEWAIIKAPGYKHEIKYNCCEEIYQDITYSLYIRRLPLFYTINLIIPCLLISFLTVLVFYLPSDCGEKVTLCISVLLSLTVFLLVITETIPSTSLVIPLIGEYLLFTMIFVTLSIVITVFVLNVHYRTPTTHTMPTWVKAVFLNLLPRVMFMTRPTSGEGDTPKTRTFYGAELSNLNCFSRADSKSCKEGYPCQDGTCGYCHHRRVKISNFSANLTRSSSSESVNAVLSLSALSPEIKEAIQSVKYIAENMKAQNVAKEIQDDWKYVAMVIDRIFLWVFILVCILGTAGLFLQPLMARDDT
α3β2 nAChR, sequence (P12390 25-500): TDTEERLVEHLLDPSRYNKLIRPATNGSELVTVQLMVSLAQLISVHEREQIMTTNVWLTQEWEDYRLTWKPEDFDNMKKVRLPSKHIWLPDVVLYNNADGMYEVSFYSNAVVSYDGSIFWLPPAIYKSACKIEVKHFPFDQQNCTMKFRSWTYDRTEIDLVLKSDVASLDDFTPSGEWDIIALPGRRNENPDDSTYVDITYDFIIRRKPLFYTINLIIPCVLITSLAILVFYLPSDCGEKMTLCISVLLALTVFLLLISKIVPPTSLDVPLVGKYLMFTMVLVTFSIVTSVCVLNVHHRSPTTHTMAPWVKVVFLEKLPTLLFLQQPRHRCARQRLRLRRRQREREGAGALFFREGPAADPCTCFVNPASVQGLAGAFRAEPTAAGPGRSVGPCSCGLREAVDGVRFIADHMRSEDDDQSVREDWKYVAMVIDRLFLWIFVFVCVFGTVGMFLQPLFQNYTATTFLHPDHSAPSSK
T5 sequence (P04757 26-499): as the sequence (P04757 26-499) above
T5 sequence (P12392 21-495 F275V): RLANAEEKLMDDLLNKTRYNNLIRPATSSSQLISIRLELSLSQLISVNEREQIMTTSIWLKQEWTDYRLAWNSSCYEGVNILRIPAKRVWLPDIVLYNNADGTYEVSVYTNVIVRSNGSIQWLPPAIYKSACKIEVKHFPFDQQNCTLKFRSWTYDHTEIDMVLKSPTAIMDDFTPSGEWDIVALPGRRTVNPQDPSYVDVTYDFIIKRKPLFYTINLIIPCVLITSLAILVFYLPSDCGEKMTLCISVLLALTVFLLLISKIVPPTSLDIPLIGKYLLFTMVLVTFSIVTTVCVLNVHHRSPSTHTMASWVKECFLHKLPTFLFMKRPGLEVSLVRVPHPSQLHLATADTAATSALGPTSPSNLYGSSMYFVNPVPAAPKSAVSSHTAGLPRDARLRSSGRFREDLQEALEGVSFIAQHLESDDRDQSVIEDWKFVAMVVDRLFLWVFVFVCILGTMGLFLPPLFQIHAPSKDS
T3 sequence (P04757 26-499): as the sequence (P04757 26-499) above
T3 sequence (P12392 21-495): as the sequence (P12392 21-495 F275V) above, with V255F counted along it
T4 sequence (P04756 21-457): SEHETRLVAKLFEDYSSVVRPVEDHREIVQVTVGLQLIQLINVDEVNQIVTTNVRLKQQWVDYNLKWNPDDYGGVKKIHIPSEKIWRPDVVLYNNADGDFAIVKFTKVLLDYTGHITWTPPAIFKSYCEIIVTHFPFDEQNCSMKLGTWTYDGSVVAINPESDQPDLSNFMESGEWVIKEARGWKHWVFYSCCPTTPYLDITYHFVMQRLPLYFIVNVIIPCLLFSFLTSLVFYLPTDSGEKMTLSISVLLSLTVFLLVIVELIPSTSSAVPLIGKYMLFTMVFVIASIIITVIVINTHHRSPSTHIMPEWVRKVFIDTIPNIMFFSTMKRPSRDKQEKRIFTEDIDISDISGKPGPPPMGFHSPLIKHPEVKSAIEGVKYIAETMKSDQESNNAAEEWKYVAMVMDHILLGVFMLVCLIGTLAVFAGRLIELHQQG
T4 sequence (P09690 24-501): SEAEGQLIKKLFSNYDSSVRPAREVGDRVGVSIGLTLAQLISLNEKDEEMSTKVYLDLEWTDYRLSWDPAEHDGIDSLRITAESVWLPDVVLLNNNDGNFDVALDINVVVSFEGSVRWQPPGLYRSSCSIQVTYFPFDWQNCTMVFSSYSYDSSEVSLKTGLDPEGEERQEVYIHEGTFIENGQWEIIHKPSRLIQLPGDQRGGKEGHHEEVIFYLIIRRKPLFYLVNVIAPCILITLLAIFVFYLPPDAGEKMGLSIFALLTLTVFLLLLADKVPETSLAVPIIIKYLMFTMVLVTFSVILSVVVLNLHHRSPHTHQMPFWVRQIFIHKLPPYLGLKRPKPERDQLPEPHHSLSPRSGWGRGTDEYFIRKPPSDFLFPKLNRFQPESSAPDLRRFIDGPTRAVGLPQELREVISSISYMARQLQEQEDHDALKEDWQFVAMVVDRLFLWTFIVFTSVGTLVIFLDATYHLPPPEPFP
T4 sequence (P04760 23-519): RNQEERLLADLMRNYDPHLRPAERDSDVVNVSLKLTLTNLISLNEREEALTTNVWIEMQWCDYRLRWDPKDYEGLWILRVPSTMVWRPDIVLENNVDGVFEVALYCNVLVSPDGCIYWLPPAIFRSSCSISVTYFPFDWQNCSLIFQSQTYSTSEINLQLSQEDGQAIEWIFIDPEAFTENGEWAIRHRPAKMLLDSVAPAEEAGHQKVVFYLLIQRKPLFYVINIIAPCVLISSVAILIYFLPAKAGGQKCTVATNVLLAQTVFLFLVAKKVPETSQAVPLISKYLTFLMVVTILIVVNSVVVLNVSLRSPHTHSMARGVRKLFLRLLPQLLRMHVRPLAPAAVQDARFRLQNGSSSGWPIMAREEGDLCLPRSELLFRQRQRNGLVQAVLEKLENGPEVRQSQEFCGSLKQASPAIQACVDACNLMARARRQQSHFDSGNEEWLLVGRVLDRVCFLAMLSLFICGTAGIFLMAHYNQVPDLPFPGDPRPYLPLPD
T4 sequence (P02716 25-520): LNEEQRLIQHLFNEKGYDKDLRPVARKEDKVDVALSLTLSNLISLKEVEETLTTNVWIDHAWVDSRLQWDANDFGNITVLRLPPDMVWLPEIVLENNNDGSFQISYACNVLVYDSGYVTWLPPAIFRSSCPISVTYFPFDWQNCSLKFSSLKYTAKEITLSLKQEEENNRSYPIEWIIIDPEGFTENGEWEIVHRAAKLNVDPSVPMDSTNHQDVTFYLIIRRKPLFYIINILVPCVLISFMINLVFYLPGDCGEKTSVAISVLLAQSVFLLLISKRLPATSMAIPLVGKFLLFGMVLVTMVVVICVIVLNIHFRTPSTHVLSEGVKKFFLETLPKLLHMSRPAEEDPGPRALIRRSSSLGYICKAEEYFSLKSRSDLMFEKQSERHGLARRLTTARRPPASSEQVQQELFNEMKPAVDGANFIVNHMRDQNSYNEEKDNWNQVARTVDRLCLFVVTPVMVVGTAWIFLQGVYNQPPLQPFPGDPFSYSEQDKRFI
T7 sequence (P36544 23-502): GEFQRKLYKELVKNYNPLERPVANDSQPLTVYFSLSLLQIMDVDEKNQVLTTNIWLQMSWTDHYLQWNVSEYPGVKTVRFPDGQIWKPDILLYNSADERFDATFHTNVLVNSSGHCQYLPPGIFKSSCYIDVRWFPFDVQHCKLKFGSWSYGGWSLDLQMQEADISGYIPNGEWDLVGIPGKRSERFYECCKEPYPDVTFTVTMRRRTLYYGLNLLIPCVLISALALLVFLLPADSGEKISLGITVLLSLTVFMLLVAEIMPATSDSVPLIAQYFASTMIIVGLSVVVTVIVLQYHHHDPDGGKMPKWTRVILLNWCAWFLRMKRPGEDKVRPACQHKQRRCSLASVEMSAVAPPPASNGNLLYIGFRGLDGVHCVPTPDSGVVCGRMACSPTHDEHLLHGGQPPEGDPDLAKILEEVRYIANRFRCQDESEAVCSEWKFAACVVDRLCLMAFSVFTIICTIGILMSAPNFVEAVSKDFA
T2 sequence (P09483 31-630): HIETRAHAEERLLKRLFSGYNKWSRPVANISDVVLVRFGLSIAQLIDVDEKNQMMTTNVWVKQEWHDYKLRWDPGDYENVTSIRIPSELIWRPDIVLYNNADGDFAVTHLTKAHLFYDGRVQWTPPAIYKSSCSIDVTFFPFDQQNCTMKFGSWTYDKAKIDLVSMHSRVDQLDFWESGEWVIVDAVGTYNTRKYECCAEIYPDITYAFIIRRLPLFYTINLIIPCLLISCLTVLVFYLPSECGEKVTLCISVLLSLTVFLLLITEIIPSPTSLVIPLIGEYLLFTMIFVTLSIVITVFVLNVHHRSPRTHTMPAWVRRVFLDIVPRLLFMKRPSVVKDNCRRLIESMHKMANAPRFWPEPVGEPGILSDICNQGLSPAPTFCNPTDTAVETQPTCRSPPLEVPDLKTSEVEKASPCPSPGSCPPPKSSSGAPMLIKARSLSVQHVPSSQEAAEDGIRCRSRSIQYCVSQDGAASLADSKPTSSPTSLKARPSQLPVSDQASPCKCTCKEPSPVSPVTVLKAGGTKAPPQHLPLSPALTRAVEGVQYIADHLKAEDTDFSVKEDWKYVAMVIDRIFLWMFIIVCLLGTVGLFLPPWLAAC
T2 sequence (P12390 25-500): as the sequence (P12390 25-500) above
T6 sequence (P09483 31-630): as the sequence (P09483 31-630) above
T6 sequence (P12392 21-495): as the sequence (P12392 21-495 F275V) above, with V255F counted along it
T1 sequence (P09483 31-630, stated change not applied): as the sequence (P09483 31-630) above
T1 sequence (P12390 25-500 V277F): as the sequence (P12390 25-500) above, with V253F counted along it

## CCCC(=O)N[C@@H](Cc1ccc(O)cc1)C(=O)NCCCNCCCCNCCCN [PhTX-343]
nAChRs; 100 μM applied alone, VH = −80 mV, oocytes expressing nAChRs
  effect on membrane current when applied alone: did not produce any effect on membrane current
nAChRs; all nAChRs including α7 and α1β1γδ, late current, −80 mV
  surmountability of late current inhibition by high ACh concentrations: not surmountable
nAChRs; heteromeric nAChRs, VH −60 to −100 mV
  voltage dependence of inhibition: strongly voltage-dependent
nAChRs; heteromeric neuronal nAChRs, 10 μM toxin, −80 mV
  reversibility of inhibition: irreversible
α4β2(V253F) nAChR; α4β2(V253F) vs α4β2, late current, −80 mV
  reduction in late current IC50 as compared to α4β2: 2.6 fold
α4β2(V253F) nAChR; α4β2(V253F) vs α4β2, peak current, −80 mV
  change in peak current IC50 as compared to α4β2: no significant change
α4β2(V253F) nAChR; [2]
  IC50: 63 nM
α4β2(V253F) nAChR; [3]
  IC50: 620 nM
α4β2(V253F) nAChR; [4]
  IC50: 120 nM
α4β2(V253F) nAChR; [5]
  IC50: 750 nM
α4β2(V253F) nAChR; [6]
  IC50: 14 nM
α4β2(V253F) nAChR; [7]
  IC50: 110 nM
[1]
  IC50: 100 nM
α4β2 nAChR; Late, α4β2, VH −60 mV, late current (1 min)
  IC50: 460 nM
α4β2 nAChR; Late, α4β2, VH −80 mV, late current (1 min)
  IC50: 310 nM
α4β2 nAChR; Late, α4β2, VH −100 mV, late current (1 min)
  IC50: 80 nM
α4β2 nAChR; Peak, α4β2, VH −60 mV, peak current
  IC50: 1900 nM
α4β2 nAChR; Peak, α4β2, VH −80 mV, peak current
  IC50: 930 nM
α4β2 nAChR; Peak, α4β2, VH −100 mV, peak current
  IC50: 140 nM
α4β2 nAChR; α4β2, 10 μM toxin, −80 mV
  recovery of peak current after six ACh applications (36 min): very limited or absent
α4β2 nAChR; α4β2, peak current
  decrease of peak current IC50 from −60 mV to VH −100 mV: 14 fold
α4β2 nAChR; α4β2 vs α3β4 (for PhTX-12: α1β1γδ along with α3β4), late current IC50, −80 mV
  times less sensitive than the most sensitive subtype: 26 times
α3β4 nAChR; Late, α3β4, VH −60 mV, late current (1 min), ACh 100 μM
  IC50: 88 nM
α3β4 nAChR; Late, α3β4, VH −80 mV, late current (1 min), ACh 100 μM
  IC50: 12 nM
α3β4 nAChR; Late, α3β4, VH −100 mV, late current (1 min), ACh 100 μM
  IC50: 7.7 nM
α3β4 nAChR; Peak, α3β4, VH −60 mV, peak current, ACh 100 μM
  IC50: 290 nM
α3β4 nAChR; Peak, α3β4, VH −80 mV, peak current, ACh 100 μM
  IC50: 80 nM
α3β4 nAChR; Peak, α3β4, VH −100 mV, peak current, ACh 100 μM
  IC50: 77 nM
α3β4 nAChR; [8]
  recovery of late current after six ACh applications (36 min): 69 % of control
  recovery of peak current after six ACh applications (36 min): 82 % of control
α3β4 nAChR; α3β4, peak current
  decrease of peak current IC50 from −60 mV to VH −100 mV: 3.8 fold
α3β4 nAChR; α3β4, peak current, −80 mV
  more potent than PhTX-12, peak current inhibition: 33 fold
α3β4 nAChR; α3β4 vs α3β2, peak current, −80 mV
  potency higher as compared to α3β2, peak current: 115 fold
α1β1γδ nAChR; Late, α1β1γδ, VH −60 mV, late current (1 min)
  IC50: 18000 nM
α1β1γδ nAChR; Late, α1β1γδ, VH −80 mV, late current (1 min)
  IC50: 12000 nM and 11900 nM
α1β1γδ nAChR; Late, α1β1γδ, VH −100 mV, late current (1 min)
  IC50: 2440 nM
α1β1γδ nAChR; Peak, α1β1γδ, VH −60 mV, peak current
  IC50: 27100 nM
α1β1γδ nAChR; Peak, α1β1γδ, VH −80 mV, peak current
  IC50: 15100 nM
α1β1γδ nAChR; Peak, α1β1γδ, VH −100 mV, peak current
  IC50: 3260 nM
α1β1γδ nAChR; α1β1γδ vs α3β4, late current IC50, −80 mV
  times less sensitive than the most sensitive subtype: 992 times and 1000 times
α1β1γδ nAChR; α1β1γδ, 10 μM toxin, peak current, −80 mV
  surmountability of peak current inhibition by increasing ACh concentrations: surmountable
α1β1γδ nAChR; α1β1γδ, 100 μM toxin, washing in frog Ringer solution, −80 mV
  reversibility of inhibition: reversible after 6 min
α3β2 nAChR; Late, α3β2, VH −60 mV, late current (1 min)
  IC50: 1590 nM
α3β2 nAChR; Late, α3β2, VH −80 mV, late current (1 min)
  IC50: 1370 nM
α3β2 nAChR; Late, α3β2, VH −100 mV, late current (1 min)
  IC50: 370 nM
α3β2 nAChR; Peak, α3β2, VH −60 mV, peak current
  IC50: 64500 nM
α3β2 nAChR; Peak, α3β2, VH −80 mV, peak current
  IC50: 9260 nM
α3β2 nAChR; Peak, α3β2, VH −100 mV, peak current
  IC50: 3590 nM
α3β2 nAChR; α3β2, 10 μM toxin, −80 mV
  recovery of peak current after six ACh applications (36 min): very limited or absent
α3β2 nAChR; α3β2, peak current
  decrease of peak current IC50 from −60 mV to VH −100 mV: 18 fold
α3β2 nAChR; α3β2 vs α3β4 (for PhTX-12: α1β1γδ along with α3β4), late current IC50, −80 mV
  times less sensitive than the most sensitive subtype: 114 times
α3β4(F255V) nAChR; α3β4(F255V) vs α3β4, late current, −80 mV
  increase in late current IC50 as compared to α3β4: did not see the expected increase
α3β4(F255V) nAChR; α3β4(F255V) vs α3β4, peak current, −80 mV
  reduction in peak current IC50 as compared to α3β4: 2.1 fold
α3β4(F255V) nAChR; [2]
  IC50: 74 nM
α3β4(F255V) nAChR; [3]
  IC50: 310 nM
α3β4(F255V) nAChR; [4]
  IC50: 12 nM
α3β4(F255V) nAChR; [5]
  IC50: 38 nM
α3β4(F255V) nAChR; [6]
  IC50: 5 nM
α3β4(F255V) nAChR; [7]
  IC50: 17 nM
α4β4 nAChR; Late, α4β4, VH −60 mV, late current (1 min)
  IC50: 170 nM
α4β4 nAChR; Late, α4β4, VH −80 mV, late current (1 min)
  IC50: 65 nM
α4β4 nAChR; Late, α4β4, VH −100 mV, late current (1 min)
  IC50: 27 nM
α4β4 nAChR; Peak, α4β4, VH −60 mV, peak current
  IC50: 970 nM
α4β4 nAChR; Peak, α4β4, VH −80 mV, peak current
  IC50: 350 nM
α4β4 nAChR; Peak, α4β4, VH −100 mV, peak current
  IC50: 290 nM
α4β4 nAChR; α4β4, 10 μM toxin, −80 mV
  recovery of peak current after six ACh applications (36 min): very limited or absent
α4β4 nAChR; α4β4, peak current
  decrease of peak current IC50 from −60 mV to VH −100 mV: 3.3 fold
α4β4 nAChR; α4β4 vs α3β4 (for PhTX-12: α1β1γδ along with α3β4), late current IC50, −80 mV
  times less sensitive than the most sensitive subtype: 5 times
α4β4 nAChR; α4β4 vs α4β2, late current
  late current IC50 lower than that for α4β2: ~5 fold
α4β4 nAChR; α4β4 vs α4β2, peak current
  peak current IC50 lower than that for α4β2: roughly 3 fold
α7 nAChR; Late, α7, VH −60 mV, based on the area under the current trace (no stable late current)
  IC50: 6560 nM
α7 nAChR; Late, α7, VH −80 mV, based on the area under the current trace (no stable late current)
  IC50: 5060 nM
α7 nAChR; Late, α7, VH −100 mV, based on the area under the current trace (no stable late current)
  IC50: 6770 nM
α7 nAChR; Peak, α7, VH −60 mV, peak current
  IC50: 6710 nM
α7 nAChR; Peak, α7, VH −80 mV, peak current
  IC50: 6480 nM
α7 nAChR; Peak, α7, VH −100 mV, peak current
  IC50: 8800 nM
α7 nAChR; homomeric α7, VH −60 to −100 mV
  voltage dependence of inhibition: voltage-independent
α7 nAChR; α7, 30 μM toxin, peak current, −80 mV
  surmountability of peak current inhibition by increasing ACh concentrations: surmountable
α7 nAChR; α7, 30 μM toxin, washing in frog Ringer solution, −80 mV
  reversibility of inhibition: reversible after 6 min
α7 nAChR; α7 vs α3β4 (for PhTX-12: α1β1γδ along with α3β4), late current IC50, −80 mV
  times less sensitive than the most sensitive subtype: 422 times

Source: article PMC5128878 (Scientific Reports, 2016)
